Here are results for three compounds from BindingDB's records for doi:10.1016/j.bmc.2012.10.010 (National Research Center, 2012).

In general, Ki refers to the equilibrium dissociation constant of an inhibitor or competing ligand from its target. Read a low Ki as higher affinity.

For this experiment, the target named is Urokinase-type plasminogen activator (Homo sapiens) (UniProt P00749). Put plainly: Binding affinity to uPA.
As for `N#Cc1cc(-c2ccccc2)n(-c2ccc(Cl)cc2)c1N`, the Ki was 3 pM.
In turn, `N#Cc1cc(-c2ccccc2)n(-c2ccc(Br)cc2)c1N` yielded a Ki of 3 pM.
For `N#Cc1cc(-c2ccccc2)n(Cc2nc3ccccc3[nH]2)c1N` the value was 1 pM.
